Experimental data published in ChEMBL document CHEMBL2073896, “Bromocriptine transcriptionally activates the multidrug resistance gene (pgp2/mdr1b) by a novel pathway” (J Biol Chem, 1997).

Key:
Assay type in all cases: functional, cell-based
[1] = molecular target: Multidrug resistance protein 1a (Rattus norvegicus) (UniProt Q6PSM0); assay: TP_TRANSPORTER: Western blot, H35 hepatoma cells
[2] = molecular target: Multidrug resistance protein 1a (Rattus norvegicus) (UniProt Q6PSM0); assay: TP_TRANSPORTER: Northern blot from H35 hepatoma cells
[3] = molecular target: ATP-dependent translocase ABCB1 (Rattus norvegicus, UniProt P43245); assay: TP_TRANSPORTER: Luciferase assay in H35 hepatoma cells
Chain of ATP-dependent translocase ABCB1 (P43245 whole entry): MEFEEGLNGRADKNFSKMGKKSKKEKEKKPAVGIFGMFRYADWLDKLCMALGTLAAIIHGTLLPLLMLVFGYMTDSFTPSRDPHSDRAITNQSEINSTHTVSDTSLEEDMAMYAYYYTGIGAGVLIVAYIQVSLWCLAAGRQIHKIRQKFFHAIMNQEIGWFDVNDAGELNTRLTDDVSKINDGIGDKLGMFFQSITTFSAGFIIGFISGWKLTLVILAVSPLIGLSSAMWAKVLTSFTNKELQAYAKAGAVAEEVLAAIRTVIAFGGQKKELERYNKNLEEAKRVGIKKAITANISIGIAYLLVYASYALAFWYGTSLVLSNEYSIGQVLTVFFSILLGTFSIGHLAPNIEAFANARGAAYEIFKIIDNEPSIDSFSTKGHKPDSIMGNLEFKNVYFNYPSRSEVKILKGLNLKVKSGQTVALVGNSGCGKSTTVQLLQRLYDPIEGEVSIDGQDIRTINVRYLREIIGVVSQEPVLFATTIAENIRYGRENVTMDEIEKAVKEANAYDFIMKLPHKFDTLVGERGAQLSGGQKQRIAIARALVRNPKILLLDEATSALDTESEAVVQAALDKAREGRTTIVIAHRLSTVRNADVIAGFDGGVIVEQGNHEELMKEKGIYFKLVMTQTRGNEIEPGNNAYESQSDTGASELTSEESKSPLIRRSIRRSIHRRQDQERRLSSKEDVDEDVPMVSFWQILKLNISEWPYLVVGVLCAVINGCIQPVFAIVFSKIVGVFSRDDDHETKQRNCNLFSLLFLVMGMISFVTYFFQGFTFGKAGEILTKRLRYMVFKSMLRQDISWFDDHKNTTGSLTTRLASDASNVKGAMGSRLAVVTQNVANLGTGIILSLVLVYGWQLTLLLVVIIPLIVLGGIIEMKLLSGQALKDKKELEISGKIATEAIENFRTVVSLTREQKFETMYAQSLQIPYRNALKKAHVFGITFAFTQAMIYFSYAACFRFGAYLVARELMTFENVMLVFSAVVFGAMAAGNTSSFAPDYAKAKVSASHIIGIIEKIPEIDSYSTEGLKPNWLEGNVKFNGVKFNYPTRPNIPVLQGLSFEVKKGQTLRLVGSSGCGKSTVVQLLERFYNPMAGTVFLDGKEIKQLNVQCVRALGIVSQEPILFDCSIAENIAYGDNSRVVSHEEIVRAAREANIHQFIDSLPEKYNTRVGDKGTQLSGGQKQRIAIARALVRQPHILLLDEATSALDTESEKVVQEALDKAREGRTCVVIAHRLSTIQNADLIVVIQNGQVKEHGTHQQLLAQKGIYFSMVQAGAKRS

Chain of Multidrug resistance protein 1a (Rattus norvegicus) (Q6PSM0 as listed by the source): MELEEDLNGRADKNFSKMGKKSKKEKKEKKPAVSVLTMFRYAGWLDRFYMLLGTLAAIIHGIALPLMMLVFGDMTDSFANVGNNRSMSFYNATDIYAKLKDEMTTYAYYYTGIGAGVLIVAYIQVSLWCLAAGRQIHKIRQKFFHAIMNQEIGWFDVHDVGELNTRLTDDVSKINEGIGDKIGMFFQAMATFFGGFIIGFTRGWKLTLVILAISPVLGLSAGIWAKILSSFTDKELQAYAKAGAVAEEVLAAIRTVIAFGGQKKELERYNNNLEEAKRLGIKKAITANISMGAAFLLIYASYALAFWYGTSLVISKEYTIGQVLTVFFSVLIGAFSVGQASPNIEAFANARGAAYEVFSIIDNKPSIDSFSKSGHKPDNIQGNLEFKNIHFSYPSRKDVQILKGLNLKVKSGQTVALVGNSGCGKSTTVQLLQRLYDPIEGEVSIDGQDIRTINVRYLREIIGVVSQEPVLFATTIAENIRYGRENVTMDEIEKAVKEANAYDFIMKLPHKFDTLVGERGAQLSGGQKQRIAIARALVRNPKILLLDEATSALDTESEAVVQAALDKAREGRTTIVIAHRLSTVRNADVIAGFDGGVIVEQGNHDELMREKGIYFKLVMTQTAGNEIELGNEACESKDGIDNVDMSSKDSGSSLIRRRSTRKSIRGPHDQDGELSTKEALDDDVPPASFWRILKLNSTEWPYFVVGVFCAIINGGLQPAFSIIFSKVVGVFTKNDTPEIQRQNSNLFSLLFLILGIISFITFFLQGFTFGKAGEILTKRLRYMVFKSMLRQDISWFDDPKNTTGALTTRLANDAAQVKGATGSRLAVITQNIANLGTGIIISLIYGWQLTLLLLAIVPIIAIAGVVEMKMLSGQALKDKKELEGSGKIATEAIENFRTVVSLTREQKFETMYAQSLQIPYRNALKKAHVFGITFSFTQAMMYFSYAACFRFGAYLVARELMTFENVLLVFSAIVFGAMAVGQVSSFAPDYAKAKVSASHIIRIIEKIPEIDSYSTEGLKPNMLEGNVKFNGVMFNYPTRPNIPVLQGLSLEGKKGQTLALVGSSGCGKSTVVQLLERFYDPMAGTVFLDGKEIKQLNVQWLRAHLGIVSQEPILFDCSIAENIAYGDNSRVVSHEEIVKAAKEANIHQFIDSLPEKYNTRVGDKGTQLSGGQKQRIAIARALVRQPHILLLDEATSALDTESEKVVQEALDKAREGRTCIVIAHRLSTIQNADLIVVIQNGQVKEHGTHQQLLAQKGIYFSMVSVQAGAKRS

Compound | Activity [1] | Activity [2] | Activity [3]
CC(C)C[C@H]1C(=O)N2CCC[C@H]2[C@]2(O)O[C@](NC(=O)[C@@H]3C=C4c5cccc6[nH]c(Br)c(c56)C[C@H]4N(C)C3)(C(C)C)C(=O)N12 | inducer [+] | inducer [+] | 
CCCN1CCC[C@@H]2Cc3n[nH]cc3C[C@H]21 [QUINPIROLE] |  |  | inducer [+]
CCCN1CCc2cccc3c2[C@H]1Cc1ccc(O)c(O)c1-3.Cl |  |  | inducer [+]
